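Exposure lasted 48 hours, with cells grown in 96-well plates and compounds tested at five concentrations. At the GI50, growth is halved. TGI denotes the concentration required for complete inhibition of growth.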

We go through 13 compounds from PubChem BioAssay (NCI).

Experiment in all cases: growth of human tumour cells (NCI), 48 h
Experiment [1] relates to COLO 205 colon.
Experiment [2] deals with RPMI-8226 leukemia.
For experiment [3], the system named is SNB-19 CNS.
Experiment [4] deals with A498 renal.
Experiment [5] deals with BT-549 breast.
Experiment [6] has as its system MDA-MB-231 breast.
Experiment [7] concerns OVCAR-4 ovarian.
Experiment [8] concerns M14 melanoma.
Experiment [9] relates to OVCAR-8 ovarian.
For experiment [10], the system named is NCI-H226 lung.

Consider `OCC(O)C(O)C(O)/C=N/Nc1nc2ccccc2nc1-c1ccccc1` (configuration not stated), for which the GI50 in [1] was 51.6 µM; in experiment [2], 85.3 µM; in experiment [3] it was above 100 µM; in experiment [4] it was above 100 µM; in experiment [5], above 100 µM; in experiment [6], 64.1 µM. Further, the GI50 in experiment [7] is 28.3 µM; in experiment [8] it was above 100 µM; in experiment [9], 91.1 µM; in experiment [10], above 100 µM. Besides, the TGI in experiment [1], in experiment [2], in experiment [3], in experiment [4], in experiment [5] and in experiment [6] was above 100 µM in each case. The TGI in experiment [7] is 72.2 µM; in [8], above 100 µM; in [9], above 100 µM; in experiment [10] it was above 100 µM.

With `COc1ccc(OC)c2c(=S)c3ccccc3[nH]c12`, the TGI in [1], in experiment [2], in experiment [3], in [4], in experiment [5] and in [6] was above 100 µM in each case. Besides, the TGI in experiment [7] was above 100 µM; in [8] it was above 100 µM; in [9] it was above 100 µM; in [10], above 21.5 µM.

Consider `NC(=O)c1ccc2nc3c(n2c1)C(=O)C(=O)c1ccccc1-3`, for which the GI50 in experiment [1] is 1.91 µM; in experiment [2], 2.2 µM; in experiment [3], 1.1 µM; in experiment [4], 1.73 µM; in experiment [5] it was 1.36 µM; in experiment [6] it was 0.85 µM. The GI50 in [7] is 0.481 µM; in [8] it was 0.381 µM; in [9] it was 0.403 µM; in experiment [10] it was 1.71 µM. Further, the TGI in [1] stood at 3.82 µM; in [2] it was 5.52 µM; in [3], 2.31 µM; in experiment [4] it was 3.14 µM; in experiment [5], 2.65 µM; in experiment [6] it was 2.32 µM. For the same compound, the TGI in experiment [7] was 1.71 µM; in experiment [8] it was 1.23 µM; in experiment [9] it was 1.63 µM; in experiment [10], 3.8 µM.

Turning to `OCc1ccc(N(CCN2CCCC2)Cc2ccc(F)cc2)cc1Cl`, the GI50 in [1] is 8.66 µM; in experiment [2], 18.5 µM; in experiment [3] it was 25 µM; in experiment [4] it was 1.97 µM; in experiment [5], 24.8 µM; in [6] it was 16 µM. For the same compound, the GI50 is 11.1 µM in experiment [7], 14.3 µM in experiment [8], 14 µM in experiment [9] and 1.39 µM in experiment [10]. Moreover, the TGI was found to be 21.5 µM in experiment [1]; 47.4 µM in experiment [2]; 82.1 µM in experiment [3]; 11.9 µM in experiment [4]; 86.8 µM in experiment [5]; 38.1 µM in experiment [6]. Moreover, the TGI is above 100 µM in experiment [7], 30.9 µM in [8], 30.3 µM in experiment [9] and 3.85 µM in experiment [10].

Take `NC1=Nc2cc(OCCCN3Cc4ccccc4C3)c(OCC3CC3)cc2C12CCCC2`: the GI50 in [1] was 1.59 µM; in experiment [2] it was 1.75 µM; in experiment [3], 4.53 µM; in [4], 4.48 µM; in experiment [5], 2.26 µM; in experiment [6], 1.62 µM. Also, the GI50 in experiment [7] is 3.55 µM; in experiment [8], 1.85 µM; in experiment [9], 3.71 µM; in experiment [10] it was 3.72 µM. Besides, the TGI in experiment [1] turned out to be 3.29 µM; in [2] it was 4.51 µM; in [3] it was 16.4 µM; in experiment [4], 18.1 µM; in [5], 7.84 µM; in experiment [6], 3.65 µM. Moreover, the TGI in experiment [7] worked out at 16.6 µM; in experiment [8], 3.47 µM; in experiment [9], 13.9 µM; in experiment [10], 21 µM.

As to `COc1cc(/C=C2\C(=O)Nc3cccc(Cl)c32)cc(OC)c1OC`, the GI50 in experiment [1] was above 100 µM; in experiment [2], 53.7 µM; in experiment [3] it was 60.1 µM; in experiment [4], above 100 µM; in experiment [5], above 100 µM; in [6], 33.3 µM. The GI50 in experiment [7], in [8], in experiment [9] and in experiment [10] was above 100 µM throughout. Also, the TGI in [1], in experiment [2], in experiment [3], in experiment [4], in [5] and in experiment [6] was above 100 µM each time. In addition, the TGI in [7], in experiment [8], in [9] and in experiment [10] was above 100 µM each time.

As to `COc1cc2c(cc1OCCCCOc1ccc(-c3nc4ccccc4s3)cc1)N=C[C@@H]1CCCN1C2=O`, the GI50 in [1] is 0.655 µM; in experiment [2], 0.337 µM; in [3] it was 1.52 µM; in experiment [4], 1.99 µM; in experiment [5], 0.93 µM; in experiment [6], 0.573 µM. The GI50 in experiment [7] is 1.24 µM; in experiment [8], 0.908 µM; in [9] it was 1.19 µM; in experiment [10], 1.71 µM. The TGI in [1] came out at 1.76 µM; in [2], 1.42 µM; in experiment [3], 3.04 µM; in experiment [4], 4.34 µM; in experiment [5], 2.38 µM; in experiment [6], 2.04 µM. The TGI was 9.02 µM in [7], 2.39 µM in experiment [8], 7.98 µM in experiment [9] and 3.89 µM in experiment [10].

In the case of `O=C(Nc1ccccc1)Nc1cccc(Oc2nnc(Cl)c3ccccc23)c1`, the GI50 in experiment [1] is 5.24 µM; in [2], 4.45 µM; in [3], 1.67 µM; in experiment [4], 3.45 µM; in [5], 3.06 µM; in experiment [6], 4.76 µM. In addition, the GI50 in [7] was 1.74 µM; in experiment [8] it was 6.15 µM; in experiment [9] it was 2.6 µM; in experiment [10] it was 1.95 µM. In addition, the TGI was above 25 µM in experiment [1]; 24.3 µM in [2]; 8.46 µM in [3]; 13.1 µM in experiment [4]; 10.8 µM in experiment [5]; 12.3 µM in experiment [6]. Also, the TGI is 12.2 µM in experiment [7], above 25 µM in [8], 6.53 µM in experiment [9] and 9.25 µM in experiment [10].

With `Nc1nc(-c2cccc([N+](=O)[O-])c2)cc(-c2cc(-c3cccc([N+](=O)[O-])c3)nc(N)n2)n1`, the TGI in experiment [1], in [2], in experiment [3], in experiment [4], in [5] and in [6] was above 100 µM throughout. Also, the TGI in [7], in experiment [8], in experiment [9] and in [10] was above 100 µM in each case.

As for `O=C1NN(c2ccccc2)C(=O)/C1=C/c1ccc(Br)o1`, the GI50 was 3.75 µM in [1]; 0.777 µM in [2]; 17.5 µM in [3]; 23 µM in [4]; 15.3 µM in [7]; 11 µM in [9]. Moreover, the GI50 in experiment [10] is 13.5 µM. For the same compound, the TGI in [1] was found to be 11.2 µM; in [2], 10.9 µM; in experiment [3], 41.9 µM; in experiment [4], 53.9 µM; in [5], 17.2 µM; in [6], 20.9 µM. The TGI in experiment [7] came to 29.5 µM; in experiment [8] it was 16.2 µM; in experiment [9] it was 41.6 µM; in [10], 34.7 µM.

Take `CN1CCN(c2ccc(C(=O)Nc3cc(-c4cccc(NS(=O)(=O)c5ccccc5)c4)[nH]n3)cc2)CC1`: the GI50 in [1] is 4.28 µM; in [2] it was 3.33 µM; in experiment [3] it was 14.2 µM; in experiment [4], 0.505 µM; in experiment [5] it was 9.38 µM; in experiment [6], 3.53 µM. For the same compound, the GI50 was 6.42 µM in experiment [7], 6.13 µM in experiment [8], 13.4 µM in experiment [9] and 12.6 µM in experiment [10]. In addition, the TGI in experiment [1] is 14.1 µM; in [2] it was 14.5 µM; in experiment [3] it was 32.2 µM; in experiment [4] it was 9.75 µM; in [5] it was 26.3 µM; in [6] it was 12.2 µM. Besides, the TGI was 28.7 µM in [7], 20.3 µM in experiment [8], 32.3 µM in [9] and 40 µM in experiment [10].

`CC1(C)CC(Nc2ccc(Nc3ccccc3)cc2)CC(C)(C)N1`: the TGI in experiment [1] is 32.5 µM; in [2], 37.3 µM; in [3], above 80.7 µM; in [4] it was 55.3 µM; in [5] it was 27 µM; in [6], 32.4 µM. Also, the TGI in [7] came out at 61.9 µM; in experiment [8] it was 34.7 µM; in experiment [9] it was 66.3 µM; in [10], 40.8 µM.

Take `COc1ccccc1-c1cc(=O)c2ccc(OC)c(OC)c2o1`: the TGI in experiment [1], in experiment [2], in experiment [3], in experiment [4], in [5] and in [6] was above 100 µM throughout. Moreover, the TGI in experiment [7], in [8], in experiment [9] and in experiment [10] was above 100 µM each time.
